Experimental data as given in patent US8435928B2, “Herbicidal composition” (Ishihara Sangyo Kaisha, Ltd., priority 2007, dated 2013).

Assays:
crabgrass [1] = experiment: Test Example 12: foliar application of compound No. 4-320 wettable powder with surfactant, crabgrass; format: in vivo, Digitaria sanguinalis L.; conditions: 15 g a.i./ha wettable powder, 21st day
Description: (§1) On the 21st day after the application, the state of growth of the plants was visually observed (growth inhibition rate (%)=0 (the same as the untreated plot) to 100 (complete kill)), and the results as shown in Tables b1 and b2 were obtained.
(§2) Upland field soil was put into a 1/1,000,000 ha pot, and seeds of crabgrass were sown and grown in a greenhouse. When crabgrass reached 4.0 to 5.0 leaf stage, a prescribed amount (15 g a.i./ha) of a wettable powder comprising compound No. 4-3 as an active ingredient, prepared in accordance with the above Example 1, was diluted with water corresponding to 300 L/ha (containing 0.05 vol % of a surfactant containing the POA alkyl ether phosphate), followed by foliar application. Further, for comparison, foliar application was carried out in the same manner by using SILWETT L-77 (tradename) at a concentration of 0.1 vol % instead of the above surfactant.
On the 21st day after the application, the state of growth of the plant was evaluated in the same manner as in Test Example 1, and the results as shown in Table b16 were obtained.
The results as shown in Tables b17 were obtained in the same manner as in the above Test Example 11 except that a prescribed amount (15 g a.i./ha) of a wettable powder comprising compound No. 4-320 as an active ingredient, prepared in accordance with the above Example 1, was used.

barnyardgrass = experiment: Test Example 13: foliar application of compound No. 5-1 wettable powder with surfactant, barnyardgrass; format: in vivo, Echinochloa crus-galli L; conditions: 31 g a.i./ha wettable powder, 21st day
Description: as §1
as §2, with “of bamyardgrass” for “of crabgrass”, “When barnyardgrass” for “When crabgrass”, “to 4.5” for “to 5.0”, “amount (31” for “amount (15”, “No. 5-1” for “No. 4-3”
On the 21st day after the application, the state of growth of the plant was evaluated in the same manner as in Test Example 1, and the results as shown in Table b18 were obtained.

[2] = tested on: bamyardgrass (Echinochloa crus-galli L); experiment: Test Example 8: foliar application of compound No. 2-6 wettable powder with surfactant, barnyardgrass; format: in vivo; conditions: 15 g a.i./ha wettable powder, 21st day
Description: as §1
(§3) Upland field soil was put into a 1/1,000,000 ha pot, and seeds of bamyardgrass (Echinochloa crus-galli L) and crabgrass were respectively sown and grown in a greenhouse. When barnyardgrass reached 4.0 to 4.5 leaf stage and crabgrass reached 4.0 to 5.0 leaf stage, a prescribed amount (15 g a.i./ha) of a wettable powder comprising compound No. 2-6 as an active ingredient, prepared in accordance with the above Example 1, was diluted with water corresponding to 300 L/ha (containing 0.05 vol % of a surfactant containing the POA alkyl ether phosphate), followed by foliar application. Further, for comparison, foliar application was carried out in the same manner by using SILWETT L-77 (tradename.) at a concentration of 0.1 vol % instead of the above surfactant.
(§4) On the 21st day after the application, the state of growth of the plants was evaluated in the same manner as in Test Example 1, and the results as shown in Tables b11 and b12 were obtained.

crabgrass [3] = experiment: Test Example 8: foliar application of compound No. 2-6 wettable powder with surfactant, crabgrass; format: in vivo, Digitaria sanguinalis L.; conditions: 15 g a.i./ha wettable powder, 21st day
Description: as §1, §3, §4

[4] = tested on: bamyardgrass (Echinochloa crus-galli L); experiment: Test Example 10: foliar application of compound No. 2-185 wettable powder with surfactant, barnyardgrass; format: in vivo; conditions: 15 g a.i./ha wettable powder, 21st day
Description: as §1, §3
On the 21st day after the application, the state of growth of the plants was evaluated in the same manner as in Test Example 1, and the results as shown in Tables b11 and b12 were obtained. […]

crabgrass [5] = experiment: Test Example 10: foliar application of compound No. 2-185 wettable powder with surfactant, crabgrass; format: in vivo, Digitaria sanguinalis L.; conditions: 15 g a.i./ha wettable powder, 21st day
Description: as §1, §3, §4
The results as shown in Tables b14 and b15 were obtained in the same manner as in the above Test Example 8 except that a prescribed amount (15 g a.i./ha) of a wettable powder comprising compound No. 2-185 as an active ingredient, prepared in accordance with the above Example 1, was used.

crabgrass [6] = experiment: Test Example 5: foliar application of compound No. 3-31 wettable powder with surfactant, crabgrass; format: in vivo, Digitaria sanguinalis L.; conditions: foliar application at 4.5 to 5.0 leaf stage, visual, 21st day, 0 = same as untreated, 100 = complete kill
Description: as §1
Upland field soil was put into a 1/1,000,000 ha pot, and seeds of crabgrass were sown and grown in a greenhouse. When crabgrass reached 4.5 to 5.0 leaf stage, a prescribed amount (30 g a.i./ha) of a water-based suspension concentrate comprising compound No. 238 as an active ingredient, prepared in accordance with the above Example 6, was diluted with water corresponding to 300 L/ha (containing 0.05 vol % of a surfactant containing the POA alkyl ether phosphate), followed by foliar application. Further, for comparison, foliar application was carried out in the same manner by using CITOWETT (tradename) at a concentration of 0.3 vol %, instead of the above surfactant.
On the 21st day after the application, the state of growth of the plant was evaluated in the same manner as in Test Example 1, and the results as shown in Table b5 were obtained.
The results as shown in Table b8 were obtained in the same manner as in the above Test Example 3 except that a prescribed amount (60 g a.i./ha) of a wettable powder comprising compound No. 3-31 as an active ingredient, prepared in accordance with the above Example 5, was used.

[7] = surfactant NIKKOL DDP-8 0.05 vol %, present invention
[8] = surfactant PHOSPHOLAN PS-236 0.05 vol %, present invention
[9] = surfactant SILWETT L-77 0.1 vol %, comparison
[10] = surfactant ADECA COL PS-440E 0.05 vol %, present invention
[11] = surfactant NIKKOL TDP-8 0.05 vol %, present invention
[12] = surfactant PHOSPHANOL ML-240 0.05 vol %, present invention
[13] = surfactant PHOSPHANOL RS-710 0.05 vol %, present invention
[14] = surfactant PLYSURF A219B 0.05 vol %, present invention

## CCn1ncc(C(=O)c2ccc(S(C)(=O)=O)c(OCCOC)c2C)c1OC(C)OC(=O)OC (stereo not drawn) [Compound No. 4-320, 1-(1-ethyl-4-(3-(2-methoxyethoxy)-2-methyl-4-(methylsulfonyl)benzoyl)-1H-pyrazol-5-yloxy)ethyl methyl carbonate]
Crabgrass [1]; [7]
  Growth inhibition rate (%) of crabgrass: 90%
Crabgrass [1]; [8]
  Growth inhibition rate (%) of crabgrass: 90%
Crabgrass [1]; [9]
  Growth inhibition rate (%) of crabgrass: 88%

## COCCOCc1nc(C(F)(F)F)ccc1C(=O)C1C(=O)C2CCC(C2)C1=O (stereo not drawn) [5-1]
barnyardgrass; [10]
  Growth inhibition rate (%) of barnyardgrass: 85%
barnyardgrass; [9]
  Growth inhibition rate (%) of barnyardgrass: 70%

## CCn1ncc(C(=O)c2ccc(S(C)(=O)=O)c(OCCOC)c2C)c1O [2-6]
[2]; [8]
  Growth inhibition rate (%) of barnyardgrass: 95%
[2]; [9]
  Growth inhibition rate (%) of barnyardgrass: 10%
Crabgrass [3]; [10]
  Growth inhibition rate (%) of crabgrass: 75%
Crabgrass [3]; [7]
  Growth inhibition rate (%) of crabgrass: 70%
Crabgrass [3]; [11]
  Growth inhibition rate (%) of crabgrass: 73%
Crabgrass [3]; [12]
  Growth inhibition rate (%) of crabgrass: 85%
Crabgrass [3]; [13]
  Growth inhibition rate (%) of crabgrass: 70%
Crabgrass [3]; [14]
  Growth inhibition rate (%) of crabgrass: 78%
Crabgrass [3]; [9]
  Growth inhibition rate (%) of crabgrass: 40%

## COCc1c(S(C)(=O)=O)ccc(C(=O)c2cnn(C)c2O)c1C [2-185]
[4]; [8]
  Growth inhibition rate (%) of barnyardgrass: 80%
[4]; [9]
  Growth inhibition rate (%) of barnyardgrass: 0%
Crabgrass [5]; [7]
  Growth inhibition rate (%) of crabgrass: 70%
Crabgrass [5]; [11]
  Growth inhibition rate (%) of crabgrass: 70%
Crabgrass [5]; [12]
  Growth inhibition rate (%) of crabgrass: 70%
Crabgrass [5]; [13]
  Growth inhibition rate (%) of crabgrass: 73%
Crabgrass [5]; [14]
  Growth inhibition rate (%) of crabgrass: 70%
Crabgrass [5]; [9]
  Growth inhibition rate (%) of crabgrass: 20%

## CS(=O)(=O)c1ccc(C(=O)C2C(=O)CCCC2=O)c(Cl)c1COCC(F)(F)F [Compound No. 3-31]
Crabgrass [6]; comparison: 60 g a.i./ha wettable powder in 300 L/ha water with surfactant CITOWETT 0.3 vol %
  Growth inhibition rate (%) of crabgrass: 20%
Crabgrass [6]; the present invention: 60 g a.i./ha wettable powder in 300 L/ha water with surfactant NIKKOL DDP-8 0.05 vol %
  Growth inhibition rate (%) of crabgrass: 80%
